pIC50: −log10 of the molar value. Like-named read-outs stand apart in the source and are kept apart here. Some results are limits rather than exact numbers.

The test system of one test is ChREBP. Nature of the test: Gel shift of purified ChREBP after incubation with PKA/PP2A in vitro. In kind it is biochemical, rat. Conditions: okadaic acid 10 nM. The method, then: Gel shift assay. Gel mobility shift assays were performed as described by Liu et al. (Liu et al. (1993) J Biol Chem 268, 12787-12795). Double-stranded oligonucleotides (Table 1) were prepared by mixing equal amounts of the complementary single-stranded DNAs in 50 mM NaCl, heating to 70° C. for 15 min, and cooling to room temperature. The annealed oligonucleotides were labeled with ^32P in the presence of [γ^32P]-ATP (Amersham Pharmacia) and T4 polynucleotide kinase (New England Biolabs). Binding reactions were carried out in reaction mixture containing 20 mM Hepes (pH 7.9), 50 mM KCl, 5 mM DTT, 0.2 mM EDTA, 0.5 mM PMSF, 10% glycerol, 1 μg/μl of poly(dI-dC) (Amersham Pharmacia) and 1 μg/μl of nuclear extract. The reaction mixture was incubated at room temperature for 30 min and DNA-protein complexes were separated by electrophoresis in a 4.5% nondenaturing polyacrylamide gel.
Purified ChREBP was incubated with PKA and/or PP2A in vitro and measured by gel-shift analysis with the [^32P]-radiolabeled WT oligonucleotide. Purified ChREBP was incubated for 20 min with ATP (1 mM), PKA (0.1 U/μl), 0.2 U/μl PKI, 0.025 U/μl PP2A and the PP2A inhibitor, okadaic acid (10 nM).

Test [1] concerns the target T1, nuclear Xu-5-P activated PPase (Rattus norvegicus, UniProt P63331).
T1 construct: from tissue; host or cells: rat liver nuclear extract, DEAE-cellulose then Mono Q
Nature of the test: Protein phosphatase assay, nuclear Xu-5-P activated PPase of liver. In kind it is biochemical. The following applies: read-out: inhibition of nuclear Xu-5-P-activated PPase (Mono Q eluate); for inhibition at 0.001 µM: 1 nM okadaic acid, P3 substrate. As for the experimental part:
Liver nuclear extracts were prepared as described in Example 1.
(§1) Synthetic peptides corresponding to amino acids #187-201 ([…] “P1” peptide) (SEQ ID NO:64), #556-573 ([…], “P4” peptide) (SEQ ID NO:65), and #655-674 ([…]; “P3” peptide) (SEQ ID NO:66), of ChREBP were prepared by the Peptide Synthesis Service of University of Texas Southwestern Medical Center. These peptides were phosphorylated by 10 U of PKA for 6 h at 30° C. P4 peptide corresponding to 556-573 ([…]) (SEQ ID NO:65), was phosphorylated by 10 U of AMPK for 5 h at 30° C. The reaction mixtures were passed through on a Dowex AG1X8 column (0.5 cm×5 cm) which had been equilibrated with 30% acetic acid to remove residual [^32P]-ATP. The labeled peptides in the pass through fraction were lyophilized.
(§2) Protein phosphatase activity was determined by the method of Deana et al (Deana et al. (1990) Biochem, Biophys. Acta. 1051: 199-202). The reaction mixture contained in a final volume of 50 μ1,20 mM MOPS, pH 7.0, 1 mM DTT, 25 μg of BSA, and ^32P-labeled substrate for 15 min at 30° C. The reaction was terminated by the addition of 10% trichloroacetic acid. Phosphate released was converted to a phosphomolybdic complex followed by organic solvent (isobutyl alcohol:heptane, 1:1) extraction of the complex. The reaction mixture was mixed thoroughly and centrifuged. An aliquot of the top layer was then added to 5 ml scintillation fluid and counted. One unit of protein phosphatase is defined as that amount which catalyzes the release of 1.0 μmol of ^32P/min at 30° C.
(§3) These peptides were assayed with Mono Q purified cytosolic and nuclear PPases in the presence and absence of 50 μM Xu-5-P.

In the next test the target is PP2A (Homo sapiens, UniProt P67775). The following applies: cited from earlier work.
Sequence of PP2A (P67775 whole entry): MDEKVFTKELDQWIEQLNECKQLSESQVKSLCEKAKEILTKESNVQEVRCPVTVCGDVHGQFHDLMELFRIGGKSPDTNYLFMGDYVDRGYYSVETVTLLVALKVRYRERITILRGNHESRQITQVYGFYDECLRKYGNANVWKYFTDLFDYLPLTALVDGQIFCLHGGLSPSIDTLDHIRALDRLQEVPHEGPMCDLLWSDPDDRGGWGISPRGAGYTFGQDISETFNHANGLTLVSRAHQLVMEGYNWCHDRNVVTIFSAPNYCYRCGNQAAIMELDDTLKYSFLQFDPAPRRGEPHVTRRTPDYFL
Test [2] addresses T2, cytosolic Xu-5-P activated PPase (Rattus norvegicus, UniProt P63331).
T2 construct: from tissue; host or cells: rat liver cytosolic extract, DEAE-cellulose then Mono Q
Nature of the test: Protein phosphatase assay, cytosolic Xu-5-P activated PPase of liver. The following applies: for inhibition of cytosolic PPase (MonoQ eluate): okadaic acid concentration not stated (below 10 nM). The test is classed as biochemical. The method, then:
Liver was homogenized in a motor-driven Potter-Elvehjem homogenizer in 1 volume of extraction buffer containing 10 mM Hepes (pH 7.9), 10 mM KCl, 0.1 mM EDTA, 0.74 mM spermidine, 0.25 M sucrose, 50 mM imidazole, 1 mM dithiothreitol (DTT), 4 mM phenylmethanesulfonyl fluoride, and 1 mM benzamidine, and the extract was centrifuged at 10,000×g for 30 min.
as §1, §2, §3

T1 sequence (P63331 whole entry): as the sequence (P67775 whole entry) above, with V5L counted along it
T1 sequence (P56932 whole entry partner): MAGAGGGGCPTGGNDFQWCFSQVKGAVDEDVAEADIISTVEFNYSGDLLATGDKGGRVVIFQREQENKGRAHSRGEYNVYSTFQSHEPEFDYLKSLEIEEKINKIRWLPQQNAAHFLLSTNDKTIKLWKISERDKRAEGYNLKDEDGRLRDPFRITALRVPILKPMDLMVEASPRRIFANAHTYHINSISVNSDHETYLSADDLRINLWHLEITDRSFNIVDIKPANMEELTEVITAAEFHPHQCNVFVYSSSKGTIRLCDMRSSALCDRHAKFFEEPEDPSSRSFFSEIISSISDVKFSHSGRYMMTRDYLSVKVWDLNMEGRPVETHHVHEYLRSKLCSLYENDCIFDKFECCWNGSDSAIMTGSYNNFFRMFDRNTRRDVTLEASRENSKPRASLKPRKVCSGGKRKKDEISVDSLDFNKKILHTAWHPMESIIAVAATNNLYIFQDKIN
T1 sequence (Q5XI34 1-589 partner): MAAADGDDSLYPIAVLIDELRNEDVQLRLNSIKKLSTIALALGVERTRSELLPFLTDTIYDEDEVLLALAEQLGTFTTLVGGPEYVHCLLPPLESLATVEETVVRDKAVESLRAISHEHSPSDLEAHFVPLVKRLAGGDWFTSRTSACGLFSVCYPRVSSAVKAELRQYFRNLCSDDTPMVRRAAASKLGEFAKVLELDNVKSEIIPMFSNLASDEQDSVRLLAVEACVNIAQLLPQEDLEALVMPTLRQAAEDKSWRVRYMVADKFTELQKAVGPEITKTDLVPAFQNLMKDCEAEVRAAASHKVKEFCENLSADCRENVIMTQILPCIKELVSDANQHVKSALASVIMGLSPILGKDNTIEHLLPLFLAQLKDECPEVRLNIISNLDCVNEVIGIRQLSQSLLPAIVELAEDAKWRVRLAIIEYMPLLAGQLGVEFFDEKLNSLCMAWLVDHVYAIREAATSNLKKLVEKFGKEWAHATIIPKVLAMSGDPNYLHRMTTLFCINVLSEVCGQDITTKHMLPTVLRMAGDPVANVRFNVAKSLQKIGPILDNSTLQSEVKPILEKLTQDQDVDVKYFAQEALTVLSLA
T2 sequence (P63331 whole entry): as the sequence (P67775 whole entry) above, with V5L counted along it
T2 sequence (P56932 whole entry partner): as the sequence (P56932 whole entry partner) above
T2 sequence (Q5XI34 1-589 partner): as the sequence (Q5XI34 1-589 partner) above

In the case of `C=C1[C@@H](O)[C@@H]2O[C@]3(CC[C@H](/C=C/[C@@H](C)[C@@H]4CC(C)=C[C@@]5(O[C@H](C[C@@](C)(O)C(=O)O)CC[C@H]5O)O4)O3)CC[C@H]2O[C@@H]1[C@@H](O)C[C@H](C)[C@H]1O[C@@]2(CCCCO2)CC[C@H]1C` [okadaic acid], in the test with ChREBP, the “reactivation of phosphorylated ChREBP by PP2A” value was “blocked”. For the same compound, the inhibition at 0.001 µM in test [1] (absence of Xu-5-P) worked out at 63%; in test [1] (presence of Xu-5-P), 70%. Besides, the inhibition at 0.01 µM in test [1] (10 nM okadaic acid) is above 95%. Also, the pIC50 on PP2A was 9.00. The entries for the “inhibition of cytosolic PPase (MonoQ eluate)” value in test [2] (absence of Xu-5-P) and in test [2] (presence of Xu-5-P) were “approximately 65%” and around 50%, respectively. Moreover, the “inhibition of cytosolic Xu-5-P activated PPase (in words)” value in test [2] (okadaic acid 10 nM (absence and presence of Xu-5-P), cantharidic acid 500 nM, deltamethrin 300 nM) is on record as “completely”.

These data come from patent publication US20030124590A1, “Carbohydrate response element binding protein and uses thereof” (priority 2001, published 2003).
